Calls of active or inactive are those of the source.
Legend:
Vero [1] = test: mammalian cell viability reduction – secondary assay, cytotoxicity control for West Nile virus antiviral project, dose response (AID 1650); assay type: functional; settings: Chlorocebus sabaeus
[2] = target: T1, Tyrosine-protein phosphatase non-receptor type 5 (Homo sapiens, UniProt P54829); test: PTPN5 enzyme inhibition – biochemical, fluorescence intensity, uHTS hits, confirmation (AID 602372); assay type: functional; settings: read-out: IC50_Mean
T1 sequence (P54829 whole entry): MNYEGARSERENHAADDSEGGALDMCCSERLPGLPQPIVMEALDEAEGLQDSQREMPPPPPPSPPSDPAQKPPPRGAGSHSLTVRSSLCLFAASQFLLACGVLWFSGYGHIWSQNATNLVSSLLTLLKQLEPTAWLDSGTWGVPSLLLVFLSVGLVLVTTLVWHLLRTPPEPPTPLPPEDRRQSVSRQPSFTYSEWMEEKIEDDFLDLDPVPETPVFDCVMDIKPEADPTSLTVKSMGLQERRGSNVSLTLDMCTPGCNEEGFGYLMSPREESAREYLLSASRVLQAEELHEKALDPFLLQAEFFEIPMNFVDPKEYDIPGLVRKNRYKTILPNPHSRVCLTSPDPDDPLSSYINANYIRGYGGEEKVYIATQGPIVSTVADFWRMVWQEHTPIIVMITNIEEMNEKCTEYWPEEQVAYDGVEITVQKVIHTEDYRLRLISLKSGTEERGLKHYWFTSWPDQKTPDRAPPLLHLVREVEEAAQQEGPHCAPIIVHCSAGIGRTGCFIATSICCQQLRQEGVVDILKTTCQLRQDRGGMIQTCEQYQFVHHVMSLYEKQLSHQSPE

[3] = target: T2, Tyrosine-protein phosphatase non-receptor type 11 (Homo sapiens, UniProt Q06124); test: PTPN11 enzyme inhibitors – biochemical, selectivity assay for STEP inhibitor project, dose response (AID 602367); assay type: functional; settings: read-out: IC50_Mean
T2 sequence (Q06124 whole entry): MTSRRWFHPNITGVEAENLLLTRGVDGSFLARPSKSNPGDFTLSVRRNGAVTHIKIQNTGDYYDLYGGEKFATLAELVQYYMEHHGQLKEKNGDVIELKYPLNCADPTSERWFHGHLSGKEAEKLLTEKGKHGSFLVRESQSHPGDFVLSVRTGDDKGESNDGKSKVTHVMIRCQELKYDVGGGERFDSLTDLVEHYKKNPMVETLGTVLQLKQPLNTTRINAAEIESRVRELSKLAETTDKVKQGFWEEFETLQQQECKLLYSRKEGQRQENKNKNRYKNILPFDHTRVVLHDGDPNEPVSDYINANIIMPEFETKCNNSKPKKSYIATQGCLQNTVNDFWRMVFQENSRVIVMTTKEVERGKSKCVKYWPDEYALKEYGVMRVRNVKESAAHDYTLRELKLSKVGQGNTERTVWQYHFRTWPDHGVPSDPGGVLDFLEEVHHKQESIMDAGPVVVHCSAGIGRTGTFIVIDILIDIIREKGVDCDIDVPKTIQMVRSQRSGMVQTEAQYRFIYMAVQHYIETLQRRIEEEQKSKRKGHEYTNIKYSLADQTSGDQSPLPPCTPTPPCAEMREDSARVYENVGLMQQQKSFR

[4] = target: T3, Carboxy-terminal domain RNA polymerase II polypeptide A small phosphatase 1 (Homo sapiens, UniProt Q9GZU7); test: CTDSP1 inhibitors, concentration-response, biochemical, absorbance readout, ultra-high-throughput screen actives (AID 540297); assay type: functional
T3 sequence (Q9GZU7 whole entry): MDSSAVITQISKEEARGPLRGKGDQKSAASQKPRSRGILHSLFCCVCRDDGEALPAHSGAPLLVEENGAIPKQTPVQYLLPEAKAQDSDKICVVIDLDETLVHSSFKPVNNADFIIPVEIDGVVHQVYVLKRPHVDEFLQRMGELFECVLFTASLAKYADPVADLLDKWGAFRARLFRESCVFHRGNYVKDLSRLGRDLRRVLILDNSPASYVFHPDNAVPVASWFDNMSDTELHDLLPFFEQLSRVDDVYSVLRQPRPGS

[5] = target: Dual specificity protein phosphatase 3 (Homo sapiens, UniProt P51452); test: VHR phosphatase inhibition, dose response, selectivity assay for STEP inhibitor project, biochemical (AID 602374); assay type: functional; settings: read-out: IC50_Mean
Vero [6] = test: viability of Vero cells under compound – cytotoxicity control for flavivirus capping enzyme inhibitors (AID 588742); assay type: functional; settings: Chlorocebus sabaeus
[7] = fluconazole-exposed Candida albicans growth modulators – fluorescence, retest, confirmation (AID 2467); assay type: functional, cell-based
Albumin = Albumin (Bos taurus, UniProt P02769); test: Counterscreen for inhibitors of T-cell receptor (TCR)-CD3 interaction: Fluorescence-based biochemical high throughput dose response assay to identify inhibitors of T-cell receptor (TCR)-CD3 interaction using a TAMRA-labeled BSA probe.; assay type: functional
Genome polyprotein = Genome polyprotein (dengue virus type 2, UniProt P29990); test: flavivirus cap methylation enzyme inhibition – biochemical, confirmation dose response, primary screen (AID 588689); assay type: functional
[8] = target: Induced myeloid leukemia cell differentiation protein Mcl-1 (Homo sapiens, UniProt Q07820); assay type: functional
Nonstructural protein 1 = Nonstructural protein 1 (Influenza A virus, UniProt Q194T2); assay type: functional, Influenza A virus (A/California/07/2009(H1N1))
[9] = NIH-3T3 fibroblast cytotoxicity, dose response, cytotoxicity control, cell-based, fluorescence, Alamar Blue, secondary assay (AID 2327); assay type: functional;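 further: NIH-3T3 mouse fibroblasts cultured with fluconazole at 8 µg/mL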
H9c2 = test: cells; assay type: functional, cell-based; settings: Rattus norvegicus, H9c2, Myocardium
[10] = target: T4, Microphthalmia-associated transcription factor (Homo sapiens, UniProt O75030); test: reducers of TRPM1 reporter luminescence, concentration series – cell-based, SK-MEL-5, cherry-picked, set 3, MITF inhibitor project, dose response (AID 493073); assay type: functional;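 further: SK-MEL-5 melanoma cells with luciferase driven by the MITF target TRPM1 promoter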
T4 sequence (O75030 whole entry): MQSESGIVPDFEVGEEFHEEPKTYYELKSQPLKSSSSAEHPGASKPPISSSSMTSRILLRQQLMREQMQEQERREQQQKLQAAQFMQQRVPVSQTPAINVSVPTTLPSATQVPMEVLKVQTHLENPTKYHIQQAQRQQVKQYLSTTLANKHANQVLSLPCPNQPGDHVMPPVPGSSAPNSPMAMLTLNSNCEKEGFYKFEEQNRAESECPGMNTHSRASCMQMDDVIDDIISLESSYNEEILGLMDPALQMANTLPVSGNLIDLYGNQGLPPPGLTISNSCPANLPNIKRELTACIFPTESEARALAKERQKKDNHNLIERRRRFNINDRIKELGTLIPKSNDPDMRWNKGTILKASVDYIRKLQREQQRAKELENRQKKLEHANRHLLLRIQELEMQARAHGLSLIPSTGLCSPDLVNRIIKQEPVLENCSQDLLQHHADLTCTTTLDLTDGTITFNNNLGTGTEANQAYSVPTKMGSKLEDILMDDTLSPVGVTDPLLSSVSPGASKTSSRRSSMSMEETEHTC

cells [11] = assay type: functional, cell-based
cells [12] = assay type: functional, cell-based; remark: listed apart in the source
Streptococcus = test: GAS UMAA2166 growth inhibition – luminescence, BacTiterGlo, counter-screen for streptokinase expression inhibitor project, dose response (AID 1915); assay type: functional, organism-based;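 further: potency for reduction of bacterial viability or growth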
[13] = test system: Streptococcus sp. 'group A'; test: Streptococcus pyogenes SK(-)GAS viability under kanamycin – luminescence, BacTiterGlo, confirmation, counter-screen for streptokinase expression inhibitor project, dose response (AID 1900); assay type: functional, organism-based
Aminopeptidase N = target: T5, Aminopeptidase N (Plasmodium falciparum FcB1/Columbia, UniProt O96935); test: malaria alanyl aminopeptidase activity blockers – biochemical, fluorogenic H-Leu-NHMec substrate, 1536-well (AID 1445); parameters: species or system Plasmodium falciparum 3D7, 3D7
T5 sequence (O96935 whole entry): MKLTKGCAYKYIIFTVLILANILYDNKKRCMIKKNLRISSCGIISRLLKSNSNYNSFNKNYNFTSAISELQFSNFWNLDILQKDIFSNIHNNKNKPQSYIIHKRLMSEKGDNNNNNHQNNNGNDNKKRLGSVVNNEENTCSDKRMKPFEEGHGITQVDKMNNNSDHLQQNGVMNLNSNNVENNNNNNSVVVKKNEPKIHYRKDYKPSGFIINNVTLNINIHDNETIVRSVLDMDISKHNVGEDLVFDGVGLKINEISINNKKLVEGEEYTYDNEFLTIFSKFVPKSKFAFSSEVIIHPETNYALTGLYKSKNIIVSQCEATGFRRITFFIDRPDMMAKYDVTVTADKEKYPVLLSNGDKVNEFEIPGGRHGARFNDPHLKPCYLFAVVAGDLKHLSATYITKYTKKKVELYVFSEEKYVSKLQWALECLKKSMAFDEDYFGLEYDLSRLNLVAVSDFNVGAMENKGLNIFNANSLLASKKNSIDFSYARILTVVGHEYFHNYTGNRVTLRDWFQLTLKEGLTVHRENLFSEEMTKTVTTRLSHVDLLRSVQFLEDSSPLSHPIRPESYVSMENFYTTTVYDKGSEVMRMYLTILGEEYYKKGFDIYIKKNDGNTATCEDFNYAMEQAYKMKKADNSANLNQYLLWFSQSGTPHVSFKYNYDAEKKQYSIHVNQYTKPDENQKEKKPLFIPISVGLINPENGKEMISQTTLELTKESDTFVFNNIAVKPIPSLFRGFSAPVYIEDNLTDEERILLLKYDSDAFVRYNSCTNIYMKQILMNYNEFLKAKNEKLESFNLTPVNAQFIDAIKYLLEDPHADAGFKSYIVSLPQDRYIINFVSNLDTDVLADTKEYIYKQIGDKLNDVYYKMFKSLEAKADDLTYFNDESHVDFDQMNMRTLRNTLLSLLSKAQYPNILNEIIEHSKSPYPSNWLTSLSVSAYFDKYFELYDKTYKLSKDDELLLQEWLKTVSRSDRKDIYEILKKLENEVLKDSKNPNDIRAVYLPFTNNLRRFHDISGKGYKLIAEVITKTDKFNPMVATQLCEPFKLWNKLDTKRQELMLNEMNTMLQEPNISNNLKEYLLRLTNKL

INS1 = test: INS-1E survival protection against cytokine death – cell-based, luminescence, retest, dose response (AID 449756); assay type: functional; settings: Rattus norvegicus;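 further: cell death triggered by IL-1 beta plus TNF-alpha plus IFN-gamma mixture; protective hits raise ATP signal compared with cytokine alone wells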

Albumin, sequence (P02769 whole entry): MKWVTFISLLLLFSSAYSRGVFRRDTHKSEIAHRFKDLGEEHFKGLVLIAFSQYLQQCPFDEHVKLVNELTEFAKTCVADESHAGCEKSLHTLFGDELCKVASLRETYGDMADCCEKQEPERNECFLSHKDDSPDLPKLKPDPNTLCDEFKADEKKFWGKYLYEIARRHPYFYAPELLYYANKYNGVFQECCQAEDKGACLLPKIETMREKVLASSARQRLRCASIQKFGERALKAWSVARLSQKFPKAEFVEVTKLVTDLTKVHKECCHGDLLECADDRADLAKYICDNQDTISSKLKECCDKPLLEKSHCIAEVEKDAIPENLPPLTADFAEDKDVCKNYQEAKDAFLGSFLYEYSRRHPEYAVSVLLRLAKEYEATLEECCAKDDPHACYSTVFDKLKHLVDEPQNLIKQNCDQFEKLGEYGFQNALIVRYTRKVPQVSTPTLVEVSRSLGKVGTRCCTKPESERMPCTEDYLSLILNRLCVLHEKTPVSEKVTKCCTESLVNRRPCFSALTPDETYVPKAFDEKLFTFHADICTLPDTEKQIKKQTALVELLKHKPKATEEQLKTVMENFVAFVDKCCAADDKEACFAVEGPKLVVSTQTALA
Genome polyprotein, sequence (P29990 2492-3391 limits assumed): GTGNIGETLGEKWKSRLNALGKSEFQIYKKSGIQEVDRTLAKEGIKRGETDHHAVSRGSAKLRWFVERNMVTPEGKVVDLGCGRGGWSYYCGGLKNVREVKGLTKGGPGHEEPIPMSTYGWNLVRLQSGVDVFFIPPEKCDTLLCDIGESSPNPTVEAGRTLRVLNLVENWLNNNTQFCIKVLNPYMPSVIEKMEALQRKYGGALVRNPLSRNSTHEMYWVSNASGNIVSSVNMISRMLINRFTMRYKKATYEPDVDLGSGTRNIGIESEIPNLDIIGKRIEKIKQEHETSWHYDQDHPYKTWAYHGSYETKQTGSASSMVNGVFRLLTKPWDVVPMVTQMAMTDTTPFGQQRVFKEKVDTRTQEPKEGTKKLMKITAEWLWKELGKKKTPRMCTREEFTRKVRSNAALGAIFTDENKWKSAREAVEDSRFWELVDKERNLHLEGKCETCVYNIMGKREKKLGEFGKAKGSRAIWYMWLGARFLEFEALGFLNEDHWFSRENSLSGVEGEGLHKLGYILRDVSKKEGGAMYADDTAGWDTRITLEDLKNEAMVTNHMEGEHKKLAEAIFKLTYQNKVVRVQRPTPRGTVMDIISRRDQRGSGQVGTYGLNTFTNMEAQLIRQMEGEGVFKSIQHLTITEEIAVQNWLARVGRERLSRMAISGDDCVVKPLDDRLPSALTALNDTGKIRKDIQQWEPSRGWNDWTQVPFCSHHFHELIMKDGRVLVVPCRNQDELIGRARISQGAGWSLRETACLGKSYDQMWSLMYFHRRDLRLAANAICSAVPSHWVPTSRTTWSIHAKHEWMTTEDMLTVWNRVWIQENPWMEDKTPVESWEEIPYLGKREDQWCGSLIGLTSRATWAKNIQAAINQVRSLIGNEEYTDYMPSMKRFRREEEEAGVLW
Dual specificity protein phosphatase 3, sequence (P51452 whole entry): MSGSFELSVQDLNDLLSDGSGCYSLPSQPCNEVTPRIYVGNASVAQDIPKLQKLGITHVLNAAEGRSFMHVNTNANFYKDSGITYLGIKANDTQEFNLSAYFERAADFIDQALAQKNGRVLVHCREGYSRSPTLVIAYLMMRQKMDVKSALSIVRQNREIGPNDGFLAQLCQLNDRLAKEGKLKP
Induced myeloid leukemia cell differentiation protein Mcl-1, sequence (Q07820 whole entry): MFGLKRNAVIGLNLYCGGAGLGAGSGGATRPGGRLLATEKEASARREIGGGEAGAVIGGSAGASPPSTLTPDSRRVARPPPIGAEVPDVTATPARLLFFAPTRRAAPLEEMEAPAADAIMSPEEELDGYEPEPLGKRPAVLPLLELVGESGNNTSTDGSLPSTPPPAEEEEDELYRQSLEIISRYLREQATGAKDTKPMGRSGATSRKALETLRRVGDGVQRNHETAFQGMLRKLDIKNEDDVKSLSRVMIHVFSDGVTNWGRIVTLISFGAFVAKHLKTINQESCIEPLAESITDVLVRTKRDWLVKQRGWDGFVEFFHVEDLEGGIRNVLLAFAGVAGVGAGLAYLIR
Nonstructural protein 1, sequence (Q194T2 whole entry): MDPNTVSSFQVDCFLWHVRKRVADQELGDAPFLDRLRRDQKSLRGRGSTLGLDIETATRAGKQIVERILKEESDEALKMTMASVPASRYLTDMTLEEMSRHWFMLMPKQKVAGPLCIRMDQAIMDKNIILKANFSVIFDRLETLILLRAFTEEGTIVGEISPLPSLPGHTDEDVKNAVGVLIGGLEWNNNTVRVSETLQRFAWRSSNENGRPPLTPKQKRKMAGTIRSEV

## Cc1ccc(CS/C(Nc2ccccc2C)=C(\C#N)C(=O)NCc2ccco2)c(C)c1
Vero [1]
  CC50: 15.2 µM (active)

## CCOc1ccc(/C=N/NC(=O)c2cc3c(OC)cccc3[nH]2)cc1
[2]
  IC50: 13.2 µM (active)
[3]
  IC50: 1.65 µM (active)
[4]
  IC50: 3.08 µM (active)
[5]
  IC50: 1.85 µM (active)

## O=[N+]([O-])c1cc(Cl)cc(/C=N/NC(=S)Nc2ccc(S(=O)(=O)N3CCOCC3)cc2)c1O
Vero [6]
  CC50: 38.3 µM (active)
[7]
  EC50: > 38 µM (not active)
Albumin
  IC50: > 94.1 µM (inactive)
Genome polyprotein
  IC50: > 100 µM (active)
[8]
  IC50: 3.47 µM (active)
Nonstructural protein 1
  IC50: 3.52 µM (active)
[9]
  EC50: > 160 µM (inactive)

## O=C(CSc1nnc(-c2ccccc2)n1Cc1ccccc1)NNC(=O)c1ccccc1O
Albumin
  IC50: > 94.1 µM (inactive)
H9c2
  IC50: 33.7 µM (inactive)

## Cc1nc(C)c(C(=O)N/N=C/c2cc(Br)ccc2O)s1
[10]
  AC50: 3.66 µM (active)
Cells [11]
  EC50: > 350 µM (not active)
[7]
  EC50: 1.34 µM (active)
Cells [12]
  EC50: 99.3 µM (active)
Streptococcus
  EC50: 8.73 µM (active)
[13]
  EC50: 2.35 µM (active)
[9]
  EC50: > 150 µM (inactive)
Aminopeptidase N
  IC50: 12.9 µM (active)
INS1
  AC50: 2.63 µM (active)

## Cc1c(/C=N/NC(N)=O)c2ccccn2c1C(=O)c1ccncc1
Cells [11]
  EC50: > 350 µM (not active)
Cells [12]
  EC50: > 350 µM (not active)

From ChEMBL document CHEMBL1201862, “PubChem BioAssay data set” (2004)
